Experimental data: ChEMBL document CHEMBL5532762, “Potential of covalently linked tamoxifen hybrids for cancer treatment: recent update” (RSC Med Chem, 2024)

What was measured:
[1] = tested on: MCF7; experiment: Antiproliferative activity against human MCF7 cells assessed as reduction in cell viability measured after 72 hrs by MTT assay; format: functional, cell-based; conditions: MCF7, 72 h
[2] = tested on: MDA-MB-231; experiment: Growth inhibition of human MDA-MB-231 cells measured after 48 hrs by SRB assay; format: functional
[3] = tested on: SiHa; experiment: Growth inhibition of human SiHa cells measured after 48 hrs by SRB assay; format: functional
[4] = Aqueous solubility of the compound; format: physicochemical; conditions: water (aqueous)
[5] = tested on: MCF7; experiment: Antiproliferative activity against human MCF7 cells assessed as reduction in cell growth incubated for 24 hrs by MTT assay; conditions: MCF7, 24 h
[6] = tested on: MDA-MB-231; experiment: Antiproliferative activity against human MDA-MB-231 cells assessed as reduction in cell growth incubated for 24 hrs by MTT assay; conditions: MDA-MB-231, 24 h
[7] = tested on: MCF7; experiment: Antiproliferative activity against human MCF7 cells assessed as reduction in cell growth measured after 72 hrs by alamar blue analysis; conditions: MCF7, 72 h
[8] = biological target: Estrogen receptor beta (Homo sapiens, UniProt Q92731); experiment: Inhibition of ERbeta (unknown origin) by renilla luciferase assay
Estrogen receptor beta, sequence (Q92731 whole entry): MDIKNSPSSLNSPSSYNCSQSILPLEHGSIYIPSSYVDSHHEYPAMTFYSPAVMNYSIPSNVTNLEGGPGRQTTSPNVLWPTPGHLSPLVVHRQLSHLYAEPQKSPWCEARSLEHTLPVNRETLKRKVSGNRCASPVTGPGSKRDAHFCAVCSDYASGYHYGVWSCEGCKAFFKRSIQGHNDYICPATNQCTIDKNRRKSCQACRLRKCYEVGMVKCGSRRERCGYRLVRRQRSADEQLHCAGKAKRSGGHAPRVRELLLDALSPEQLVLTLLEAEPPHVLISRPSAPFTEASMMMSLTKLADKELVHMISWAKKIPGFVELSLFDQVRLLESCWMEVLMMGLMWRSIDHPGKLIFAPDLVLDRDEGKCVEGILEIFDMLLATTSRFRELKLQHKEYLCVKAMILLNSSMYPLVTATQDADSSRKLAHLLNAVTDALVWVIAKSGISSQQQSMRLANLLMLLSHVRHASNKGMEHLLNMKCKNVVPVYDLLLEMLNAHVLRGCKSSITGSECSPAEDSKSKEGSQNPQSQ

[9] = tested on: MCF7; experiment: Antiproliferative activity against human MCF7 cells assessed as cell growth inhibition incubated for 72 hrs by MTT assay; conditions: MCF7, 72 h

In the case of `CC/C(=C(\c1ccccc1)c1ccc(OCCN(C)CCCCCC(=O)NCCc2c[nH]c3ccc(OC)cc23)cc1)c1ccccc1`, the IC50 [1] is reported as 80000 nM.

Work on `CC/C(=C(\c1ccccc1)c1ccc(OCCN(C)CCCCC(=O)NCCc2c[nH]c3ccc(OC)cc23)cc1)c1ccccc1` yielded an IC50 [1] of 4000 nM.

In the case of `c1ccc(/C(Cn2cncn2)=C(/c2ccccc2)c2ccc(OCCN3CCN(c4ccc5c(c4)OCO5)CC3)cc2)cc1`, the GI50 [2] is reported as 230 nM.

Molecule `c1ccc(/C(Cn2cncn2)=C(/c2ccccc2)c2ccc(OCCN3CCN(c4ncccn4)CC3)cc2)cc1` has a GI50 [3] of 120 nM.

For `CC/C(=C(/c1ccc(OCCN(C)C)cc1)c1ccc(OC(=O)N(C)CCN(C)C(=O)OCc2cc(OC)c(OCC(=O)NCCN)cc2[N+](=O)[O-])cc1)c1ccccc1`, the solubility [4] was ≥ 20 µg/mL.

Molecule `CCC(=C(c1ccc(O)cc1)c1ccc(OCCN(C)C(=O)/C(=C/c2ccc(OC)c(O)c2)c2cc(OC)c(OC)c(OC)c2)cc1)c1ccc(O)cc1` has an IC50 [5] of 5 nM and an IC50 [6] of 2480 nM.

For `COc1cc(COc2ccc(/C(=C(\C)c3ccccc3)c3ccc(OCCN(C)C)cc3)cc2)c([N+](=O)[O-])cc1OCC(=O)NCCN`, the solubility [4] was ≥ 20 µg/mL.

Molecule `CC/C(=C(\c1ccc(O)cc1)c1ccc(OCCN(C)C(=O)CCC(=O)Oc2cc(/C=C\c3cc(OC)c(OC)c(OC)c3)ccc2OC)cc1)c1ccccc1` has an IC50 [7] of 5.7 nM.

`CCC(=C(c1ccc(O)cc1)c1ccc(OCCNCCCCCCNC(=O)CCCCCNC(=O)CSc2c(Cl)c(Cl)c(C(=O)O)c(C3=c4cc5c(c(S(=O)(=O)O)c4Oc4c3cc3c(c4S(=O)(=O)O)NC(C)(C)CC3C)=NC(C)(C)CC5C)c2Cl)cc1)c1ccccc1` (centres undefined) gave an IC50 [8] of 240000 nM.

In the case of `COc1ccc(/C=C\c2cc(OC)c(OC)c(OC)c2)cc1O` [COMBRETASTATIN A4], the IC50 [5] is reported as 8 nM.

Work on `CC/C(=C(\c1ccc(O)cc1)c1ccc(OCCNC)cc1)c1ccccc1` [ENDOXIFEN] yielded an IC50 [5] of 29 nM.

Molecule `CC/C(=C(\c1ccccc1)c1ccc(OCCN(C)C)cc1)c1ccccc1` [TAMOXIFEN] has an IC50 [9] of 12600 nM and a GI50 [2] of 240 nM.
